According to US10842777B2, “Compounds and compositions that bind and stabilize transthyretin and their use for inhibiting transthyretin amyloidosis and protein-protein interactions” (The Board of Trustees of the Leland Stanford Junior …, priority 2012, dated 2020):
“Also recorded” adds a separate entry of the source. Read-outs that look alike come from different tables or passages of the source.

Tests used:
TTR = molecular target: T1, TTR (Homo sapiens, UniProt P02766); experiment: Isothermal titration calorimetry (ITC); type: binding; details: for Kd: TTR 2 μM titrated with 25 μM compound, PBS pH 7.4, 25° C., two-site negative cooperativity model; for ΔG1 / ΔH1 / ΔG2 / ΔH2: ITC; for ΔG1 / ΔH1: first binding site; for ΔG2 / ΔH2: second binding site
T1 construct: purchased Sigma; host or cells: human plasma

[1] = system: Hep3B, Jurkat, MCF7 and HeLa cell lines; experiment: Cytotoxicity assay (MTT), panel of four cell lines; type: cell-based; details: 1 to 100 μM, 24 h
Protocol: (§1) Cell viability results are reported relative to cells treated with vehicle only (100% cell viability).
(§2) 5×10^3 cells were seeded on 80 μl growth media (except 2.5×10^4 Jurkat cells) in each well in 96-well plates and incubate O/N at 37° C. 20 μl of fresh growth media containing each compound were added into each well to make the final concentration ranging from 1-100 μM. DMSO was used for normalization. Cell titer was tested every 24 h using CellTiter 96 non-radioactive cell proliferation assay kit (Promega, Madison, Wis.) at 560 nm absorbance.

Hep3B cells = experiment: Cytotoxicity assay (MTT), Hep3B; type: cell-based, human; details: 1 to 100 μM, 24 h
Protocol: as §1, §2

Hela cells = experiment: Cytotoxicity assay (MTT), HeLa; type: cell-based; details: 1 to 100 μM, 24 h
Protocol: as §1, §2

WT-TTR in human serum [2] = molecular target: T2, WT-TTR in human serum (Homo sapiens, UniProt P02766); experiment: Serum WT-TTR tetramer stability against acid denaturation; details: 10 μM compound, human serum (TTR ~5 μM), pH 4.0, 72 hours
Protocol: Serum samples were incubated in acetate buffer (pH 4.0), with DMSO or 10 μM of test compound, for the desired time period (0 and 72 hours) before cross-linking, SDS-PAGE, and immunoblotting. The density of all TTR bands (TTR tetramer; arrowhead and TTR bound to RBP; solid arrow) was quantified using an Odyssey infrared imaging system (LI-COR Bioscience, Lincoln, Nebr.) and reported as % TTR tetramer=100×[(tetramer & tetramer+RBP density, 72 hrs)/(tetramer & tetramer+RBP density of DMSO, 0 hrs)].
All compounds were 10 mM stock solutions in DMSO and diluted accordingly with DMSO for different assays. 0.5 μl of each compound was added to 24.5 μl of human serum (from human male AB plasma, Sigma) to make the final concentration of 10 μM. The samples were incubated at 37° C. for 2 h, and then 10 μl of the samples were diluted 1:10 with acidification buffer (pH 4.0, 100 mM sodium acetate, 100 mM KCl, 1 mM EDTA, 1 mM DTT). […] All the samples were denatured with adding 100 μl SDS gel loading buffer and boiled for 5 min. […] The normalization was done by dividing each value of the TTR tetramer band intensity by the average of all the values at time 0.
The compounds were tested for their ability to stabilize WT-TTR in human serum (FIG. 5). […] Test compounds (10 μM) were pre-incubated with human serum (TTR ˜5 μM) and the pH was lowered to pH 4.0 to induce aggregation. Aliquots, taken at 0 and 72 hours, were treated with glutaraldehyde to cross-link TTR tetramers that remained intact in the serum sample. SDS-PAGE followed by immunoblot analysis was used to measure the amount of intact TTR tetramer after 72 hours of acid treatment in the presence and absence of test compounds.

WT-TTR in human serum [3] = molecular target: T2, WT-TTR in human serum; experiment: Serum TTR selectivity assay (covalent probe 6 competition); type: binding; set-up: tissue Sigma-Aldrich; host or cells: human serum (A4: from human male AB plasma); details: 10 μM compound, 3.6 μM probe, human serum (TTR ~5 μM), after 6 hours; lower = more selective
Protocol: 98 μL of human serum (Sigma-Aldrich) was mixed with 1 μL of test compounds (1.0 mM stock solution in DMSO, final concentration: 10 μM) and 1 μL of covalent probe 6 (0.36 mM stock solution in DMSO: final concentration: 3.6 μM). The fluorescence changes (λex=328 nm and λem=384 nm) were monitored every 10 min using a microplate spectrophotometer reader (Molecular Devices SpectraMax M5) for 6 h at 25° C.
Covalent probe 6 binds selectively to TTR in serum and covalently modifies K15, creating a fluorescent conjugate. Ligands that bind with high selectivity to TTR in serum decrease covalent probe 6 binding to TTR and therefore lower the fluorescence. All test compounds (10 μM) were incubated with human serum (WT-TTR concentration ˜5 μM) in the presence of covalent probe 6 (3.6 μM) (FIG. 4).

[4] = molecular target: T3, V122I-TTR in serum from FAC patients (Homo sapiens, UniProt P02766, V142I); experiment: Serum V122I-TTR tetramer stability against acid denaturation; type: biochemical; details: 10 μM compound, pH 4.0, 72 hours
T3 construct: stabilization of V122I-TTR in serum from two FAC patients; from tissue; host or cells: serum of two FAC patients carrying V122I

MCF7 cells = experiment: Cytotoxicity assay (MTT), MCF7; type: cell-based; details: MCF7, 1 to 100 μM, 24 h
Protocol: as §1, §2

[5] = human subjects, 20 mg daily dose; read-out: mean maximum concentration (Cmax) in serum; cited from earlier work

Row | Kd (TTR; read-out: Kd1) [nM] | Kd (TTR; read-out: Kd2) [nM] | TTR tetramer stabilization (% TTR tetramer) (WT-TTR in human serum [2]) | covalent probe 6 binding to TTR relative to probe alone (WT-TTR in human serum [3]) [%] | ΔG1 (TTR) | ΔH1 (TTR) [kcal/mol] | ΔG2 (TTR) | ΔH2 (TTR) [kcal/mol] | V122I-TTR tetramer stabilized [4] [%] | SMILES | concentration at which toxicity to certain cell lines is displayed [1] [µM] | concentration at which cytotoxicity is shown (Hep3B cells) [µM] | concentration at which cytotoxicity is shown (Hela cells) [µM] | cytotoxicity towards the cell lines tested [1] | concentration at which cytotoxic effects were observed (MCF7 cells) [µM] | Cmax [5] [µM]
1 | 58 | 500 | 61.7%+/−2.1 | 59.3±8.7 | – | – | – | – | – | Cc1n[nH]c(C)c1CCCOc1ccccc1F [Compound A] | > 25 | > 25 | > 25 | – | – | –
2 | – | – | 108+/−6% | 3.1±2.9 | ~−11.4 | -13.6 | ~−8.8 | -7.5 | ~100 | Cc1n[nH]c(C)c1CCCOc1cc(C(=O)O)ccc1F [Compound VIIc, 3-(3-(3,5-Dimethyl-1H-pyrazol-4-yl)propoxy)-4-fluorobenzoic acid] | – | – | – | not toxic; also recorded: no cytotoxic effects | – | –
3 | – | – | about 58%+/−3 | – | ~−11.4 | -5.0 | ~−8.8 | -3.9 | – | O=C(O)c1ccc2nc(-c3cc(Cl)cc(Cl)c3)oc2c1 [tafamidis] | – | – | – | – | > 50 | ~7.4
